Data on seven compounds can be found in patent US8735322B2, “Herbicides” (Syngenta Limited, priority 2008, dated 2014).

Format in all cases: in vivo
Assay [1] has as its system Avena fatua (AVEFA). Nature of the assay: Example A post-emergence herbicidal activity, glasshouse pot test. The settings on record: 360 h, rate 500 g/ha, evaluated 15 days after spraying, read-out: herbicidal damage AVEFA (100=total damage to plant; 0=no damage to plant). The protocol:
(§1) Seeds of a variety of test species were sown in standard soil in pots. After cultivation for one day (pre-emergence) or after 10 days cultivation (post-emergence) under controlled conditions in a glasshouse, the plants were sprayed with an aqueous spray solution derived from the formulation of the technical active ingredient in 0.6 ml acetone and 45 ml formulation solution containing 10.6% Emulsogen EL (Registry number 61791-12-6), 42.2% N-methylpyrrolidone, 42.2% dipropylene glycol monomethyl ether (Registry number 34590-94-8) and 0.2% X-77 (Registry number 11097-66-8). The test plants were then grown in a greenhouse under optimum conditions until, 15 days later for post-emergence and 20 days for pre-emergence, the test was evaluated (100=total damage to plant; 0=no damage to plant). Alopecurus myosuroides (ALOMY), Avena fatua (AVEFA), Lolium perenne (LOLPE), Setaria faberi (SETFA), Digitaria sanguinalis (DIGSA), Echinochloa crus-galli (ECHCG) Post Emergency Activity

The subject of assay [2] is Setaria faberi (SETFA). The assay is described as above. The note with it: 360 h, rate 500 g/ha, evaluated 15 days after spraying, read-out: herbicidal damage SETFA (100=total damage to plant; 0=no damage to plant). The method, then: as §1
Assay [3] concerns Digitaria sanguinalis (DIGSA). Described as above. The note with it: 360 h, rate 500 g/ha, evaluated 15 days after spraying, read-out: herbicidal damage DIGSA (100=total damage to plant; 0=no damage to plant). The protocol: as §1
The test system of assay [4] is Lolium perenne (LOLPE). Described as above. The note with it: 360 h, rate 500 g/ha, evaluated 15 days after spraying, read-out: herbicidal damage LOLPE (100=total damage to plant; 0=no damage to plant). The method, then: as §1
For assay [5], the system named is Alopecurus myosuroides (ALOMY). The assay is described as above. The note with it: 360 h, rate 500 g/ha, evaluated 15 days after spraying, read-out: herbicidal damage ALOMY (100=total damage to plant; 0=no damage to plant). The method, then:
as §1

Assay [6] has as its system Echinochloa crus-galli (ECHCG). The assay is described as above. The note with it: 360 h, rate 500 g/ha, evaluated 15 days after spraying, read-out: herbicidal damage ECHCG (100=total damage to plant; 0=no damage to plant). The method, then: as §1
Assay [7] concerns Avena fatua (AVEFA). Nature of the assay: Example A pre-emergence herbicidal activity, glasshouse pot test. The settings on record: 480 h, rate 500 g/ha, evaluated 20 days later, 100=total damage to plant, 0=no damage to plant. The protocol:
as §1, with “Pre-Emergence” for “Post Emergency”

Assay [8] concerns Lolium perenne (LOLPE). The assay is described as above. The settings on record: 480 h, rate 500 g/ha, evaluated 20 days later, 100=total damage to plant, 0=no damage to plant. The method, then: as §1, with “Pre-Emergence” for “Post Emergency”
The subject of assay [9] is Alopecurus myosuroides (ALOMY). The assay is described as above. The note with it: 480 h, rate 500 g/ha, evaluated 20 days later, 100=total damage to plant, 0=no damage to plant. The method, then:
as §1, with “Pre-Emergence” for “Post Emergency”

The subject of assay [10] is Echinochloa crus-galli (ECHCG). Described as above. The settings on record: 480 h, rate 500 g/ha, evaluated 20 days later, 100=total damage to plant, 0=no damage to plant. The method, then:
as §1, with “Pre-Emergence” for “Post Emergency”

Assay [11] has as its system Amaranthus retroflexus (AMARE). Nature of the assay: Example B post-emergence herbicidal activity, glasshouse pot test. The settings on record: 312 h, rate 1000 g/ha, evaluated after 13 days, read-out: herbicidal damage AMARE (100=total damage to plant; 0=no damage to plant). The method, then: (§2) Seeds of a variety of test species were sown in standard soil in pots. After cultivation for one day (pre-emergence) or after 8 days cultivation (post-emergence) under controlled conditions in a glasshouse (at 24/16° C., day/night; 14 hours light; 65% humidity), the plants were sprayed with an aqueous spray solution derived from the formulation of the technical active ingredient in acetone/water (50:50) solution containing 0.5% Tween 20 (polyoxyethelyene sorbitan monolaurate, CAS RN 9005-64-5). The test plants were then grown in a glasshouse under controlled conditions in a glasshouse (at 24/16° C., day/night; 14 hours light; 65% humidity) and watered twice daily. After 13 days for pre and post-emergence, the test was evaluated (100=total damage to plant; 0=no damage to plant). Alopecurus myosuroides (ALOMY), Avena fatua (AVEFA), Setaria faberi (SETFA), Echinochloa crus-galli (ECHCG), Solanum nigrum (SOLNI) and Amaranthus retroflexus (AMARE) Post-Emergence Activity

In assay [12] the test system is Avena fatua (AVEFA). The description is as above. The note with it: 312 h, rate 1000 g/ha, evaluated after 13 days, read-out: herbicidal damage AVEFA (100=total damage to plant; 0=no damage to plant). The method, then:
as §2

Assay [13] concerns Setaria faberi (SETFA). Described as above. The settings on record: 312 h, rate 1000 g/ha, evaluated after 13 days, read-out: herbicidal damage SETFA (100=total damage to plant; 0=no damage to plant). The protocol:
as §2

For assay [14], the system named is Solanum nigrum (SOLNI). The assay is described as above. The settings on record: 312 h, rate 1000 g/ha, evaluated after 13 days, read-out: herbicidal damage SOLNI (100=total damage to plant; 0=no damage to plant). The protocol:
as §2

Assay [15] relates to Alopecurus myosuroides (ALOMY). The description is as above. The settings on record: 312 h, rate 1000 g/ha, evaluated after 13 days, read-out: herbicidal damage ALOMY (100=total damage to plant; 0=no damage to plant). The protocol: as §2
For assay [16], the system named is Echinochloa crus-galli (ECHCG). The description is as above. The settings on record: 312 h, rate 1000 g/ha, evaluated after 13 days, read-out: herbicidal damage ECHCG (100=total damage to plant; 0=no damage to plant). The method, then:
as §2

In assay [17] the test system is Amaranthus retroflexus (AMARE). Nature of the assay: Example B pre-emergence herbicidal activity, glasshouse pot test. The settings on record: 312 h, rate 1000 g/ha, evaluated after 13 days, read-out: herbicidal damage AMARE (100=total damage to plant; 0=no damage to plant). The protocol: as §2, with “Pre-Emergence” for “Post-Emergence”
The test system of assay [18] is Avena fatua (AVEFA). The description is as above. The note with it: 312 h, rate 1000 g/ha, evaluated after 13 days, read-out: herbicidal damage AVEFA (100=total damage to plant; 0=no damage to plant). The method, then:
as §2, with “Pre-Emergence” for “Post-Emergence”

For assay [19], the system named is Setaria faberi (SETFA). The assay is described as above. The note with it: 312 h, rate 1000 g/ha, evaluated after 13 days, read-out: herbicidal damage SETFA (100=total damage to plant; 0=no damage to plant). The protocol: as §2, with “Pre-Emergence” for “Post-Emergence”
Assay [20] relates to Solanum nigrum (SOLNI). The description is as above. The note with it: 312 h, rate 1000 g/ha, evaluated after 13 days, read-out: herbicidal damage SOLNI (100=total damage to plant; 0=no damage to plant). The protocol: as §2, with “Pre-Emergence” for “Post-Emergence”
The subject of assay [21] is Alopecurus myosuroides (ALOMY). Described as above. The note with it: 312 h, rate 1000 g/ha, evaluated after 13 days, read-out: herbicidal damage ALOMY (100=total damage to plant; 0=no damage to plant). The protocol:
as §2, with “Pre-Emergence” for “Post-Emergence”

Assay [22] has as its system Echinochloa crus-galli (ECHCG). Described as above. The settings on record: 312 h, rate 1000 g/ha, evaluated after 13 days, read-out: herbicidal damage ECHCG (100=total damage to plant; 0=no damage to plant). The protocol:
as §2, with “Pre-Emergence” for “Post-Emergence”

For the compound `CCc1cc(C)cc(CC)c1C1=C(O)CC(C(C)C2CCOCC2)CC1=O` (stereo not shown) [Compound A-11], the pest or weed control at 500 g/ha is 90% in the assay on Avena fatua (AVEFA) [1]; 80% in the assay with Setaria faberi (SETFA) [2]; 90% in assay [3]; 90% in the assay on Lolium perenne (LOLPE) [4]; 100% in assay [5]; 100% in [6]. In addition, the pest or weed control at 500 g/ha in the assay on Avena fatua (AVEFA) [7] was found to be 100%; in the assay with Lolium perenne (LOLPE) [8], 100%; in assay [9] it was 100%; in [10], 70%.

With `Cc1ccc(-c2ccc(Cl)cc2)cc1C1=C(O)CC(CC2OCC(CC3CCOCC3)O2)CC1=O` (stereo not shown) [Compound A-60], the pest or weed control at 1000 g/ha is 0% in assay [11]; 10% in the assay on Avena fatua (AVEFA) [12]; 90% with Setaria faberi (SETFA) [13]; 0% in the assay on Solanum nigrum (SOLNI) [14]; 60% in assay [15]; 90% in [16]. The pest or weed control at 1000 g/ha in assay [17] is 0%; in the assay on Avena fatua (AVEFA) [18], 0%; with Setaria faberi (SETFA) [19], 30%; in the assay with Solanum nigrum (SOLNI) [20], 0%; in [21], 0%; in assay [22] it was 30%.

As to `Cc1ccc(-c2ccc(Cl)cc2)cc1C1=C(O)CC(CC2O[C@H]3COC[C@H]3O2)CC1=O` (stereo partly shown) [Compound A-61], the pest or weed control at 1000 g/ha came out at 0% in [11]; 80% with Avena fatua (AVEFA) [12]; 100% in the assay on Setaria faberi (SETFA) [13]; 0% in the assay on Solanum nigrum (SOLNI) [14]; 90% in assay [15]; 100% in assay [16]. Besides, the pest or weed control at 1000 g/ha in [17] was 0%; with Avena fatua (AVEFA) [18], 0%; with Setaria faberi (SETFA) [19], 30%; with Solanum nigrum (SOLNI) [20], 0%; in assay [21] it was 0%; in assay [22], 20%.

In the case of `Cc1ccc(-c2ccc(Cl)cc2)cc1C1=C(O)CC(CC2OCCCCO2)CC1=O` (stereo not shown) [Compound A-62], the pest or weed control at 1000 g/ha in [11] worked out at 0%; in the assay on Avena fatua (AVEFA) [12] it was 80%; in the assay with Setaria faberi (SETFA) [13] it was 100%; with Solanum nigrum (SOLNI) [14], 0%; in [15], 90%; in assay [16], 100%. The pest or weed control at 1000 g/ha in [17] is 0%; in the assay with Avena fatua (AVEFA) [18], 0%; in the assay on Setaria faberi (SETFA) [19] it was 60%; in the assay on Solanum nigrum (SOLNI) [20], 0%; in assay [21], 20%; in assay [22] it was 50%.

As for `COCC1COC(CC2CC(=O)C(c3cc(-c4ccc(Cl)cc4)ccc3C)=C(O)C2)O1` (stereo not shown) [Compound A-63], the pest or weed control at 1000 g/ha came to 0% in assay [11]; 90% in the assay on Avena fatua (AVEFA) [12]; 100% in the assay with Setaria faberi (SETFA) [13]; 0% with Solanum nigrum (SOLNI) [14]; 90% in [15]; 100% in [16]. Moreover, the pest or weed control at 1000 g/ha was determined as 20% in assay [17]; 0% with Avena fatua (AVEFA) [18]; 70% with Setaria faberi (SETFA) [19]; 0% in the assay with Solanum nigrum (SOLNI) [20]; 0% in [21]; 20% in assay [22].

In the case of `Cc1ccc(-c2ccc(Cl)cc2)cc1C1=C(O)CC(CC2OCC(C)CO2)CC1=O` (stereo not shown) [Compound A-64], the pest or weed control at 1000 g/ha stood at 0% in assay [11]; 80% in the assay with Avena fatua (AVEFA) [12]; 100% in the assay on Setaria faberi (SETFA) [13]; 0% with Solanum nigrum (SOLNI) [14]; 80% in assay [15]; 100% in assay [16]. Moreover, the pest or weed control at 1000 g/ha was 0% in assay [17]; 0% in the assay with Avena fatua (AVEFA) [18]; 50% in the assay on Setaria faberi (SETFA) [19]; 0% in the assay on Solanum nigrum (SOLNI) [20]; 0% in assay [21]; 50% in [22].

As for `Cc1ccc(-c2ccc(Cl)cc2)cc1C1=C(O)CC(CC2OCC3(CC3)CO2)CC1=O` (stereo not shown) [Compound A-65], the pest or weed control at 1000 g/ha in [11] was found to be 90%; in the assay on Avena fatua (AVEFA) [12], 20%; in the assay on Setaria faberi (SETFA) [13], 70%; in the assay with Solanum nigrum (SOLNI) [14], 60%; in assay [15], 40%; in assay [16], 70%. Also, the pest or weed control at 1000 g/ha worked out at 30% in assay [17]; 0% with Avena fatua (AVEFA) [18]; 60% with Setaria faberi (SETFA) [19]; 20% in the assay on Solanum nigrum (SOLNI) [20]; 20% in [21]; 70% in [22].
